The record followed here is patent US20250034171A1, “IMIDAZOPYRIDINE AMIDES AND RELATED COMPOUNDS FOR USE IN THE TREATMENT OF BACTERIAL INFECTIONS” (priority 2021, published 2025).

The test system of this test is Mycobacterium tuberculosis strain H37Rv. Kind of test: Test 2: MIC determination against M. tuberculosis, resazurin fluorescence. The class given is cell-based. Conditions: Test 2, M. tuberculosis H37Rv; for MIC90: read-out: Bacterial activity MIC90; for IC50: read-out: Bacterial activity pMIC50 (converted). On the technique in general: Alamar Blue is a resazurin reagent that responds to reducing activity.

The mark [1] stands for this setting: Mycobacterium tuberculosis, H37RV.

SMILES strings stand for the structures. Values after ≈ are worked out from the molar mass of the structure shown. Where two headings read alike, the source gives them in different places.

Regarding `CCc1nc2n(c1C(=O)NCc1ccc(-c3nc4n(n3)CC[C@H](C(F)(F)F)C4)cc1)C[C@H](C)CC2` (single isomer, unassigned) [Compound 65], under setting [1], the MIC90 worked out at 0.039 µM (≈ 0.019 µg/mL) and the IC50 is 13500 pM.
With `CCc1nc2n(c1C(=O)NCc1ccc(-c3nc4n(n3)CC[C@@H](C(F)(F)F)C4)cc1)CC[C@H](C)C2` (single isomer, unassigned) [Compound 66], under setting [1], the MIC90 stood at 0.24 µM (≈ 0.117 µg/mL) and the IC50 is 51300 pM.
Consider `CCc1nc2n(c1C(=O)NCc1ccc(-c3nc4n(n3)CC[C@H](C(F)(F)F)C4)cc1)CC[C@@H](C)C2` (single isomer, unassigned) [Compound 67], for which, under setting [1], the MIC90 came to 0.18 µM (≈ 0.0876 µg/mL) and the IC50 is 40700 pM.
For `CCc1nc2n(c1C(=O)NCc1ccc(-c3nc4n(n3)CC[C@H](C(F)(F)F)C4)cc1)CC[C@H](C)C2` (single isomer, unassigned) [Compound 68], under setting [1], the MIC90 stood at 0.23 µM (≈ 0.112 µg/mL) and the IC50 was 47900 pM.
Take `CCc1nc2n(c1C(=O)NCc1ccc(-c3nc4n(n3)CC[C@H](C(F)(F)F)C4)cc1)C[C@@H](C)CC2` (single isomer, unassigned) [Compound 69]: the “Bacterial activity pMIC50” value came to 7.95 and the MIC90 came to 0.031 µM (≈ 0.0151 µg/mL).
Regarding `CCc1nc2n(c1C(=O)NCc1ccc(-c3nc4n(n3)CC[C@@H](C(F)(F)F)C4)cc1)CC[C@@H](C)C2` (single isomer, unassigned) [Compound 70], under setting [1], the MIC90 was determined as 0.23 µM (≈ 0.112 µg/mL) and the IC50 is 56200 pM.
Regarding `CCc1nc2n(c1C(=O)NCc1ccc(-c3nc4n(n3)CC[C@@H](C(F)(F)F)C4)cc1)C[C@H](C)CC2` (single isomer, unassigned) [Compound 71], under setting [1], the MIC90 came out at 0.024 µM (≈ 0.0117 µg/mL) and the IC50 was 9550 pM.
For `CCc1nc2n(c1C(=O)NCc1ccc(-c3nc4n(n3)CC[C@@H](C(F)(F)F)C4)cc1)C[C@@H](C)CC2` (single isomer, unassigned) [Compound 72] the same measures were 0.042 µM (≈ 0.0204 µg/mL) and 13800 pM.
As for `CCc1nc2n(c1C(=O)NCc1ccc(-c3nc4n(n3)CC[C@H](C(F)(F)F)C4)cc1)C[C@@H](C)CC2` (single isomer, unassigned) [Compound 75], the “Bacterial activity pMIC50” value is 7.48 and the MIC90 turned out to be 0.086 µM (≈ 0.0418 µg/mL).
For `CCc1nc2n(c1C(=O)NCc1ccc(-c3nc4n(n3)CC[C@@H](C(F)(F)F)C4)c(F)c1)CCCC2` (single isomer, unassigned) [Compound 76], the “Bacterial activity pMIC50” value came to 7.55 and the MIC90 is reported as 0.09 µM (≈ 0.0441 µg/mL).
Consider `CCc1nc2ccccn2c1C(=O)NCc1ccc(-c2nc3n(n2)CC[C@@H](C(F)(F)F)C3)c(F)c1` (single isomer, unassigned) [Compound 78], for which the “Bacterial activity pMIC50” value is 8.08 and the MIC90 was 0.028 µM (≈ 0.0136 µg/mL).
With `CCc1nc2ccccn2c1C(=O)NCc1ccc(-c2nc3n(n2)CC[C@H](C(F)(F)F)C3)c(F)c1` (single isomer, unassigned) [Compound 79], the “Bacterial activity pMIC50” value is on record as 7.99 and the MIC90 is 0.035 µM (≈ 0.017 µg/mL).
Turning to `CCc1nn2c(c1C(=O)NCc1ccc(-c3nc4n(n3)CC[C@H](C(F)(F)F)C4)cc1)C[C@H](C)CC2` (single isomer, unassigned) [Compound 81], under setting [1], the MIC90 stood at 0.19 µM (≈ 0.0924 µg/mL) and the IC50 is 57500 pM.
With `CCc1nn2c(c1C(=O)NCc1ccc(-c3nc4n(n3)CC[C@@H](C(F)(F)F)C4)cc1)C[C@@H](C)CC2` (single isomer, unassigned) [Compound 82], under setting [1], the MIC90 is 0.087 µM (≈ 0.0423 µg/mL) and the IC50 was 30900 pM.
Turning to `CCc1nn2c(c1C(=O)NCc1ccc(-c3nc4n(n3)CC[C@@H](C(F)(F)F)C4)cc1)C[C@H](C)CC2` (single isomer, unassigned) [Compound 83], under setting [1], the MIC90 worked out at 0.23 µM (≈ 0.112 µg/mL) and the IC50 was 63100 pM.
Regarding `CCc1nc2ncc(C)cn2c1C(=O)NCc1ccc(-c2nc3n(n2)CCC(C)C3)cc1` (single isomer, unassigned) [Compound 94], the “Bacterial activity pMIC50” value turned out to be 7.86 and the MIC90 is 0.039 µM (≈ 0.0168 µg/mL).
For `CCc1nc2ncc(C)cn2c1C(=O)NCc1ccc(-c2nc3n(n2)CC[C@@H](C(C)(F)F)C3)cc1` (single isomer, unassigned) [Compound 104], the “Bacterial activity pMIC50” value is 8.25 and the MIC90 amounted to 0.015 µM (≈ 0.00719 µg/mL).
Regarding `CCc1nc2ncc(C)cn2c1C(=O)NCc1ccc(-c2nc3n(n2)CC[C@H](C(C)(F)F)C3)cc1` (single isomer, unassigned) [Compound 105], the “Bacterial activity pMIC50” value worked out at 8.24 and the MIC90 is listed as 0.014 µM (≈ 0.00671 µg/mL).
As to `CCc1nc2ncc(C)cn2c1C(=O)NCc1ccc(-c2cn3c(n2)CC(COC)CC3)cc1` (single isomer, unassigned) [Compound 118], the “Bacterial activity pMIC50” value was 7.48 and the MIC90 is 0.083 µM (≈ 0.0381 µg/mL).
With `CCc1nc2n(c1C(=O)NCc1ccc(-c3nc4n(n3)CC[C@H](C(F)(F)F)C4)cc1)CC[C@@H](O)C2` (single isomer, unassigned) [Compound 131], under setting [1], the MIC90 was more than 0.5 µM and the IC50 was more than 501000 pM.
`CCc1nc2n(c1C(=O)NCc1ccc(-c3nc4n(n3)CC[C@H](C(F)(F)F)C4)cc1)CC[C@H](O)C2` (single isomer, unassigned) [Compound 132]: under setting [1], the MIC90 was more than 0.45 µM and the IC50 is more than 269000 pM.
Turning to `CCc1nc2n(c1C(=O)NCc1ccc(-c3nc4n(n3)CC[C@H](C(F)(F)F)C4)cc1)CC[C@H](OC)C2` (single isomer, unassigned) [Compound 135], under setting [1], the MIC90 was more than 0.44 µM and the IC50 was more than 224000 pM.
On to `CCc1nc2n(c1C(=O)NCc1ccc(-c3nc4n(n3)CC[C@H](C(F)(F)F)C4)cc1)CC[C@@H](C(F)(F)F)C2` (single isomer, unassigned) [Compound 136], for which, under setting [1], the MIC90 is more than 0.5 µM and the IC50 was more than 501000 pM.
Turning to `CCc1nc2n(c1C(=O)NCc1ccc(-c3nc4n(n3)CC[C@H](C(F)(F)F)C4)cc1)CC[C@H](C(F)(F)F)C2` (single isomer, unassigned) [Compound 137], under setting [1], the MIC90 is more than 0.5 µM and the IC50 is more than 501000 pM.
Take `CCc1nc2n(c1C(=O)NCc1ccc(-c3nc4n(n3)CC[C@H](C(F)(F)F)C4)cc1)CC[C@@H](OC)C2` (single isomer, unassigned) [Compound 139]: under setting [1], the MIC90 was more than 0.45 µM and the IC50 is more than 182000 pM.
On to `CCc1nc2ncc(C(F)(F)F)cn2c1C(=O)NCc1ccc(-c2nc3n(n2)CC[C@H](C)C3)cc1` (single isomer, unassigned) [Compound 191], for which, under setting [1], the MIC90 was more than 0.5 µM and the IC50 was more than 501000 pM.
`CCc1nc2ncc(C)cn2c1C(=O)NCc1ccc(-c2nc3n(n2)CCC(C(F)(F)F)C3)nn1` (centres unmarked) [Compound 41]: under setting [1], the MIC90 is more than 0.5 µM and the IC50 is more than 501000 pM.
With `CCc1nc2ncc(C)cn2c1C(=O)NCc1ccc(-c2nc3n(n2)CCC(C(F)(F)F)C3)nc1` (centres unmarked) [Compound 43], under setting [1], the MIC90 was determined as 0.37 µM (≈ 0.179 µg/mL) and the IC50 was 155000 pM.
Taken in the same sequence, the figures for `CCc1nc2ncc(C)cn2c1C(=O)NCc1cc(C)c(-c2nc3n(n2)CCC(C(F)(F)F)C3)c(F)c1` (centres unmarked) [Compound 44] were 0.21 µM (≈ 0.108 µg/mL) and 45700 pM.
Turning to `CCc1nc2ncc(C)cn2c1C(=O)NCc1cnc(-c2nc3n(n2)CCC(C(F)(F)F)C3)c(F)c1` (centres unmarked) [Compound 45], under setting [1], the MIC90 was determined as 1.05 µM (≈ 0.528 µg/mL) and the IC50 was 245000 pM.
`CCc1nc2ncc(C)cn2c1C(=O)NCc1cnc(-c2nc3n(n2)CCC(C(F)(F)F)C3)c(C)c1` (centres unmarked) [Compound 46]: under setting [1], the MIC90 is more than 0.5 µM and the IC50 was more than 501000 pM.
Turning to `O=C(NCc1cnc(-c2nc3n(n2)CCC(C(F)(F)F)C3)c(F)c1)c1c(C(F)(F)F)nc2ccccn12` (centres unmarked) [Compound 47], under setting [1], the MIC90 is more than 0.5 µM and the IC50 was more than 501000 pM.
In the case of `CCc1nc2ncc(OC)cn2c1C(=O)NCc1ccc(-c2nc3n(n2)CC[C@@H](C(F)(F)F)C3)cc1` [Compound 48], under setting [1], the MIC90 amounted to 0.026 µM (≈ 0.013 µg/mL) and the IC50 was 8320 pM.
For the molecule `CCc1nc2ccc(F)cn2c1C(=O)NCc1ccc(-c2nc3n(n2)CC[C@@H](C(F)(F)F)C3)cc1` [Compound 52], under setting [1], the MIC90 amounted to 0.16 µM (≈ 0.0778 µg/mL) and the IC50 was 41700 pM.
As to `O=C(NCc1ccc(-c2nc3n(n2)CC[C@@H](C(F)(F)F)C3)cc1)c1c(C(F)(F)F)nc2ncccn12` [Compound 53], under setting [1], the MIC90 turned out to be 0.036 µM (≈ 0.0183 µg/mL) and the IC50 is 11000 pM.
On to `O=C(NCc1ccc(-c2nc3n(n2)CC[C@@H](C(F)(F)F)C3)cc1)c1c(C(F)(F)F)nc2n1CCCC2` [Compound 54], for which, under setting [1], the MIC90 is 0.22 µM (≈ 0.113 µg/mL) and the IC50 was 72400 pM.
For the molecule `CCc1nc2ccccn2c1C(=O)NCc1ccc(-c2nc3n(n2)CC[C@@H](C(F)(F)F)C3)cc1` [Compound 55], under setting [1], the MIC90 was 0.0086 µM (≈ 0.00403 µg/mL) and the IC50 is 2950 pM.
With `CCc1nc2ccccn2c1C(=O)NCc1ccc(-c2nc3n(n2)CC[C@H](C(F)(F)F)C3)cc1` [Compound 57], under setting [1], the MIC90 was found to be 0.022 µM (≈ 0.0103 µg/mL) and the IC50 is 6920 pM.
As to `O=C(NCc1ccc(-c2nc3n(n2)CC[C@H](C(F)(F)F)C3)cc1)c1c(C(F)(F)F)nc2n1CCCC2` [Compound 58], under setting [1], the MIC90 was 0.39 µM (≈ 0.2 µg/mL) and the IC50 was 95500 pM.
Consider `O=C(NCc1ccc(-c2nc3n(n2)CC[C@H](C(F)(F)F)C3)cc1)c1c(C(F)F)nc2ccccn12` [Compound 60], for which, under setting [1], the MIC90 was found to be 0.067 µM (≈ 0.0329 µg/mL) and the IC50 was 17400 pM.
Taken in the same sequence, the figures for `O=C(NCc1ccc(-c2nc3n(n2)CC[C@@H](C(F)(F)F)C3)cc1)c1c(C(F)F)nc2ccccn12` [Compound 61] were 0.036 µM (≈ 0.0177 µg/mL) and 11000 pM.
Take `CCc1nc2ccc(C(F)(F)F)cn2c1C(=O)NCc1ccc(-c2nc3n(n2)CC[C@@H](C(F)(F)F)C3)cc1` [Compound 63]: under setting [1], the MIC90 was more than 0.46 µM and the IC50 was more than 224000 pM.
Take `CCc1nc2ccc(C(F)(F)F)cn2c1C(=O)NCc1ccc(-c2nc3n(n2)CC[C@H](C(F)(F)F)C3)cc1` [Compound 64]: under setting [1], the MIC90 is more than 0.5 µM and the IC50 was more than 501000 pM.

The MIC90 is the lowest concentration that inhibits either 90% of growth or 90% of the strains tested, depending on the study.
